# Experiments:
# Conditions in all cases: incubation time: 72 h
# BT-549 [1] = test: drug sensitivity score (DSS), CellTox Green (DSS (AUC-based score)); higher = stronger drug effect (viability inhibition or cytotoxicity); extreme values may be limits of the assay
# Outline: (§1)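 For 72 h, breast cancer cell lines seeded at 20 µl suspension per well in 384-well plates were incubated with compound at 5 concentrations in 10-fold steps spanning a 10,000-fold range that differed by compound. The first reading was CellTox Green fluorescence at 485/520 nm, and the second was CellTiter-Glo luminescence after 10 min at room temperature. Both were normalised per plate to 0.1 % DMSO and a positive kill control, and the drug sensitivity score was obtained from the area under the fitted dose-response curve.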
# MDA-MB-436 [2] = test: as above
# Outline: as §1
# HCC1937 [3] = test: as above
# Outline: as §1
# MDA-MB-453 [4] = test: as above
# Outline: as §1
# MFM-223 = test: as above
# Outline: as §1
# CAL-85-1 [5] = test: as above
# Outline: as §1
# BT-474 [6] = test: as above
# Outline: as §1
# CAL-51 = test: as above
# Outline: as §1
# HCC1599 = test: as above
# Outline: as §1
# HCC1143 [7] = test: as above
# Outline: as §1
# CAL-120 [8] = test: as above
# Outline: as §1
# MCF-10A = test: as above
# Outline: as §1
# DU-4475 = test: as above
# Outline: as §1
# MDA-MB-231 = test: as above
# Outline: as §1
# BT-549 [9] = test: normalised viability (% of control), CellTiter-Blue; higher = more viable cells (about 100 = DMSO control)
# Outline: (§2)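 Each value is normalised viability at a single listed concentration of the series. Breast cancer cell lines in 384-well plates were incubated 72 h with compound and read by CellTiter-Blue fluorescence at 560/590 nm, with vehicle set to 100 and a positive kill control to 0 on every plate.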
# MDA-MB-468 = test: as above
# Outline: as §2
# MDA-MB-436 [10] = test: as above
# Outline: as §2
# HCC1937 [11] = test: as above
# Outline: as §2
# MDA-MB-453 [12] = test: as above
# Outline: as §2
# HDQ-P1 = test: as above
# Outline: as §2
# CAL-85-1 [13] = test: as above
# Outline: as §2
# BT-474 [14] = test: as above
# Outline: as §2
# HCC1143 [15] = test: as above
# Outline: as §2
# CAL-148 = test: as above
# Outline: as §2
# CAL-120 [16] = test: as above
# Outline: as §2
compound,measurement,setting,value
CC(C)(C)Cn1c(N)nc2ccc(-c3[nH]c(C(C)(C)C)nc3-c3ccc(F)cc3)nc21,drug sensitivity score,BT-549 [1],0
same,drug sensitivity score,MDA-MB-436 [2],2.7
same,drug sensitivity score,HCC1937 [3],0
same,drug sensitivity score,MDA-MB-453 [4],0
same,drug sensitivity score,MFM-223,0
same,drug sensitivity score,CAL-85-1 [5],4.77
same,drug sensitivity score,BT-474 [6],0
same,drug sensitivity score,CAL-51,0
same,drug sensitivity score,HCC1599,0
same,drug sensitivity score,HCC1143 [7],0
same,drug sensitivity score,CAL-120 [8],0.748
same,drug sensitivity score,MCF-10A,0
same,drug sensitivity score,DU-4475,0
same,drug sensitivity score,MDA-MB-231,0.996
Cc1c(C(=O)Nc2ccc(N3C[C@@H](C)O[C@@H](C)C3)nc2)cccc1-c1ccc(OC(F)(F)F)cc1 [NVP-LDE225],normalised viability,BT-549 [9]; 10 nM,113%
same,normalised viability,BT-549 [9]; 1000 nM,96%
same,normalised viability,BT-549 [9]; 10000 nM,97.3%
same,normalised viability,MDA-MB-468; 10 nM,109%
same,normalised viability,MDA-MB-468; 1000 nM,109%
same,normalised viability,MDA-MB-468; 10000 nM,91.9%
same,normalised viability,MDA-MB-436 [10]; 10 nM,83%
same,normalised viability,MDA-MB-436 [10]; 1000 nM,29.2%
same,normalised viability,MDA-MB-436 [10]; 10000 nM,67.3%
same,normalised viability,HCC1937 [11]; 10 nM,38.8%
same,normalised viability,HCC1937 [11]; 1000 nM,92.7%
same,normalised viability,HCC1937 [11]; 10000 nM,82.1%
same,normalised viability,MDA-MB-453 [12]; 3 nM,98.9%
same,normalised viability,MDA-MB-453 [12]; 30 nM,88.7%
same,normalised viability,MDA-MB-453 [12]; 100 nM,105%
same,normalised viability,HDQ-P1; 3 nM,76.2%
same,normalised viability,HDQ-P1; 30 nM,84%
same,normalised viability,HDQ-P1; 100 nM,84.9%
same,normalised viability,CAL-85-1 [13]; 3 nM,100%
same,normalised viability,CAL-85-1 [13]; 30 nM,86%
same,normalised viability,CAL-85-1 [13]; 100 nM,104%
same,normalised viability,BT-474 [14]; 10 nM,96.5%
same,normalised viability,BT-474 [14]; 1000 nM,101%
same,normalised viability,BT-474 [14]; 10000 nM,63.5%
same,normalised viability,HCC1143 [15]; 10 nM,108%
same,normalised viability,HCC1143 [15]; 1000 nM,102%
same,normalised viability,HCC1143 [15]; 10000 nM,96.4%
same,normalised viability,CAL-148; 3 nM,99.6%
same,normalised viability,CAL-148; 30 nM,101%
same,normalised viability,CAL-148; 100 nM,106%
same,normalised viability,CAL-120 [16]; 10 nM,99.9%
same,normalised viability,CAL-120 [16]; 1000 nM,92.7%
same,normalised viability,CAL-120 [16]; 10000 nM,97%
NC(=O)c1cccc2cn(-c3ccc([C@@H]4CCCNC4)cc3)nc12 [MK-4827],normalised viability,BT-549 [9]; 10 nM,79.1%
same,normalised viability,BT-549 [9]; 1000 nM,93.3%
same,normalised viability,BT-549 [9]; 10000 nM,72.4%
same,normalised viability,MDA-MB-468; 10 nM,101%
same,normalised viability,MDA-MB-468; 1000 nM,89%
same,normalised viability,MDA-MB-468; 10000 nM,50.4%
same,normalised viability,MDA-MB-436 [10]; 10 nM,84.2%
same,normalised viability,MDA-MB-436 [10]; 1000 nM,72.4%
same,normalised viability,MDA-MB-436 [10]; 10000 nM,65.3%
same,normalised viability,HCC1937 [11]; 10 nM,55.2%
same,normalised viability,HCC1937 [11]; 1000 nM,70.5%
same,normalised viability,HCC1937 [11]; 10000 nM,38.3%
same,normalised viability,MDA-MB-453 [12]; 3 nM,116%
same,normalised viability,MDA-MB-453 [12]; 30 nM,90.8%
same,normalised viability,MDA-MB-453 [12]; 100 nM,93.3%
same,normalised viability,HDQ-P1; 3 nM,95.3%
same,normalised viability,HDQ-P1; 30 nM,94.1%
same,normalised viability,HDQ-P1; 100 nM,95.6%
same,normalised viability,CAL-85-1 [13]; 3 nM,95.8%
same,normalised viability,CAL-85-1 [13]; 30 nM,92%
same,normalised viability,CAL-85-1 [13]; 100 nM,93.1%
same,normalised viability,BT-474 [14]; 10 nM,119%
same,normalised viability,BT-474 [14]; 1000 nM,100%
same,normalised viability,BT-474 [14]; 10000 nM,92.7%
same,normalised viability,HCC1143 [15]; 10 nM,88.9%
same,normalised viability,HCC1143 [15]; 1000 nM,85%
same,normalised viability,HCC1143 [15]; 10000 nM,64.6%
same,normalised viability,CAL-148; 3 nM,97.7%
same,normalised viability,CAL-148; 30 nM,98.2%
same,normalised viability,CAL-148; 100 nM,95.8%
same,normalised viability,CAL-120 [16]; 10 nM,81%
same,normalised viability,CAL-120 [16]; 1000 nM,76.9%
same,normalised viability,CAL-120 [16]; 10000 nM,71.1%
same,drug sensitivity score,BT-549 [1],0
same,drug sensitivity score,MDA-MB-436 [2],0
same,drug sensitivity score,MDA-MB-453 [4],0
same,drug sensitivity score,MFM-223,0
same,drug sensitivity score,CAL-85-1 [5],2.02
same,drug sensitivity score,BT-474 [6],0
same,drug sensitivity score,CAL-51,3.35
same,drug sensitivity score,HCC1599,0
same,drug sensitivity score,HCC1143 [7],0
same,drug sensitivity score,CAL-120 [8],0
same,drug sensitivity score,MCF-10A,0
same,drug sensitivity score,DU-4475,0
same,drug sensitivity score,MDA-MB-231,0
Cc1c(C(=O)Nc2ccc(N3C[C@@H](C)O[C@@H](C)C3)nc2)cccc1-c1ccc(OC(F)(F)F)cc1 [Erismodegib],drug sensitivity score,BT-549 [1],0
same,drug sensitivity score,MDA-MB-436 [2],0
same,drug sensitivity score,HCC1937 [3],0
same,drug sensitivity score,MDA-MB-453 [4],0
same,drug sensitivity score,MFM-223,0
same,drug sensitivity score,CAL-85-1 [5],0
same,drug sensitivity score,BT-474 [6],0
same,drug sensitivity score,CAL-51,0
same,drug sensitivity score,HCC1599,0
same,drug sensitivity score,HCC1143 [7],0
same,drug sensitivity score,CAL-120 [8],0
same,drug sensitivity score,MCF-10A,0
same,drug sensitivity score,DU-4475,0
same,drug sensitivity score,MDA-MB-231,0.0859
NC(=O)NO [Hydroxyurea],normalised viability,BT-549 [9]; 100 nM,82.8%
same,normalised viability,BT-549 [9]; 10000 nM,93.8%
same,normalised viability,BT-549 [9]; 100000 nM,87%
same,normalised viability,MDA-MB-468; 100 nM,110%
same,normalised viability,MDA-MB-468; 10000 nM,111%
same,normalised viability,MDA-MB-468; 100000 nM,108%
same,normalised viability,MDA-MB-436 [10]; 100 nM,99.4%
same,normalised viability,MDA-MB-436 [10]; 10000 nM,89.4%
same,normalised viability,MDA-MB-436 [10]; 100000 nM,102%
same,normalised viability,HCC1937 [11]; 100 nM,86.9%
same,normalised viability,HCC1937 [11]; 10000 nM,81.2%
same,normalised viability,HCC1937 [11]; 100000 nM,72.7%
same,normalised viability,MDA-MB-453 [12]; 30 nM,124%
same,normalised viability,MDA-MB-453 [12]; 300 nM,102%
same,normalised viability,MDA-MB-453 [12]; 1000 nM,116%
same,normalised viability,HDQ-P1; 30 nM,108%
same,normalised viability,HDQ-P1; 300 nM,122%
same,normalised viability,HDQ-P1; 1000 nM,111%
same,normalised viability,CAL-85-1 [13]; 30 nM,104%
same,normalised viability,CAL-85-1 [13]; 300 nM,93.2%
same,normalised viability,CAL-85-1 [13]; 1000 nM,105%
same,normalised viability,BT-474 [14]; 100 nM,110%
same,normalised viability,BT-474 [14]; 10000 nM,111%
same,normalised viability,BT-474 [14]; 100000 nM,110%
same,normalised viability,HCC1143 [15]; 100 nM,99.1%
same,normalised viability,HCC1143 [15]; 10000 nM,99.3%
same,normalised viability,HCC1143 [15]; 100000 nM,92.4%
same,normalised viability,CAL-148; 30 nM,106%
same,normalised viability,CAL-148; 300 nM,116%
same,normalised viability,CAL-148; 1000 nM,112%
same,normalised viability,CAL-120 [16]; 100 nM,113%
same,normalised viability,CAL-120 [16]; 10000 nM,95.4%
same,normalised viability,CAL-120 [16]; 100000 nM,101%
same,drug sensitivity score,BT-549 [1],0
same,drug sensitivity score,HCC1937 [3],0
same,drug sensitivity score,MDA-MB-453 [4],0
same,drug sensitivity score,MFM-223,0
same,drug sensitivity score,CAL-85-1 [5],0
same,drug sensitivity score,BT-474 [6],0
same,drug sensitivity score,CAL-51,8.77
same,drug sensitivity score,HCC1599,0
same,drug sensitivity score,HCC1143 [7],0
same,drug sensitivity score,CAL-120 [8],0
same,drug sensitivity score,MCF-10A,0
same,drug sensitivity score,DU-4475,0
same,drug sensitivity score,MDA-MB-231,0
COc1cc(Nc2ncc(F)c(Nc3ccc4c(n3)N(COP(=O)(O)O)C(=O)C(C)(C)O4)n2)cc(OC)c1OC [Fostamatinib],drug sensitivity score,BT-549 [1],11.4
same,drug sensitivity score,MDA-MB-436 [2],0
same,drug sensitivity score,HCC1937 [3],0
same,drug sensitivity score,MDA-MB-453 [4],0
same,drug sensitivity score,MFM-223,0
same,drug sensitivity score,CAL-85-1 [5],6.03
same,drug sensitivity score,BT-474 [6],0
same,drug sensitivity score,CAL-51,3.3
same,drug sensitivity score,HCC1599,0
same,drug sensitivity score,HCC1143 [7],0
same,drug sensitivity score,CAL-120 [8],0
same,drug sensitivity score,MCF-10A,0
same,drug sensitivity score,DU-4475,0
same,drug sensitivity score,MDA-MB-231,11.1

# Source: the supplement of paper PMC4862054
